Experimental data from patent US20160081986A1, “LONG-ACTING SPIRO-ISOXAZOLINE ANTIPARASITIC COMPOSITIONS” (priority 2013, published 2016).

Key:
[1] = system: Rhipicephalus sanguineus ticks; assay: Tick infested hair samples from treated dogs (contact activity); assay type: in vivo; details: for # Dead Ticks (mean): hair taken 26 days post dose, ten ticks per vial; for % Reduction: vs control
Procedure: (§1) The study assessed the efficacy of a 25 mg/kg (0.1 mL/kg) topical dose of Compound 1 versus control against fleas (Ctenocephalides felis) and ticks (Ixodes scapularis) on beagle dogs. The formulation was butyl digol:dimethyl isosorbide (90:10 v/v %), selected as it had excellent solubility for Compound 1. Eight male and eight female dogs were acclimated to the testing facility. On Day 0 of the study, each animal received a topical dose of Compound 1 or control (formulation without Compound 1). On Days 56, 89, 117, 145, and 173, animals were artificially infested with about 100 adult unfed fleas. Flea counts were conducted 24 hours post infestation. At each count, all fleas were removed from the dogs. On Days 55, 88, 116, 144, and 172, all dogs were infested with about 50 viable, unfed adult ticks. Tick counts were conducted 48 hours post infestation. At each count, all ticks were removed from the dogs. Further, some hair was removed from the left or right shoulder from three individual dogs from each treatment group 26 days post dose. The hair from each dog was equally divided and placed into two separate 20 mL scintillation vials. Ten female Rhipicephalus sanguineus and ten female Ixodes scapularis ticks were placed in the vials with the hair. Ticks were evaluated for viability at 2-4 hours, 24 hours, 48 hours and 72 hours post vial infestation.

Ixodes scapularis ticks = assay: as above; assay type: in vivo; details: for # Dead Ticks (mean): hair taken 26 days post dose, ten ticks per vial; for % Reduction: vs control
Procedure: as §1

[2] = Solubility of Compound 1 in the formulation; assay type: physicochemical; details: butyl digol:dimethyl isosorbide (90:10 v/v %)
Procedure: as §1

[3] = system: ticks (Ixodes scapularis); assay: 6 Month PKPD study: efficacy against ticks on beagle dogs; assay type: in vivo; details: for Geometric mean live ticks (LT): dogs, 25 mg/kg topical on Day 0; for % Reduction live ticks: vs control
Procedure: (§2) The spiro-azetidine isoxazoline, (S)-1-(5′-(5-(3,5-dichloro-4-fluorophenyl)-5-(trifluoromethyl)-4,5-dihydroisoxazol-3-yl)-3′H-spiro[azetidine-3,1′-isobenzofuran]-1-yl)-2-(methylsulfonyl)ethanone (Compound 1) was used to conduct an in-vivo long-acting efficacy study.
as §1

[4] = system: fleas (Ctenocephalides felis); assay: 6 Month PKPD study: efficacy against fleas on beagle dogs; assay type: in vivo; details: for Geometric mean live fleas (LF): dogs, 25 mg/kg topical on Day 0; for % Reduction live fleas: vs control
Procedure: as §2, §1

[5] = Franz diffusion cell screening (FDCS), flux and Kp; assay type: in vitro ADME, canine
Procedure: FDCS yields flux rates and permeation constants for the formulations through a fixed membrane (e.g., canine-, feline-, and bovine-skin).
Canine skin, stored at −20° C. for a maximum of 1 year, was thawed, trimmed, and dermatomed to give a thin layer of skin about 0.8-1.5 mm in thickness. The skin was mounted onto the Franz diffusion cell and equilibrated with the receptor media, 50:50 v/v % EtOH:Milli-Q water, for 2 to 4 hours. The receptor media was selected to provide sink conditions for Compound 1. Once equilibrated, test formulations were applied to the donor side, generally 50 μL/cm^2. Samples were generally obtained at 12, 24, 30, 36, 42, and 48 hours, but can be obtained at any six timepoints out to 72 hours. A control vehicle of with Compound 1 (250 mg/mL) in butyl digol:dimethyl isosorbide (90:10 v/v %) was included in every FDCS study.
Post experiment samples were stored at 4° C. until analysed for Compound 1 concentration by LCMS. Cumulative amount of Compound 1 in ng/cm^2 was calculated and plotted versus time. The gradient of straight line portion of the graph yields the flux value (ng/cm^2/hr) for a given formulation, FIG. 1. The flux can be divided by the applied concentration of Compound 1 to yield the permeability constant Kp (cm/hr)—often converted to a log 10 scale.

[6] = 25 mg/kg topical, butyl digol and dimethyl isosorbide, for 5 months

CS(=O)(=O)CC(=O)N1CC2(C1)OCc1cc(C3=NO[C@@](c4cc(Cl)c(F)c(Cl)c4)(C(F)(F)F)C3)ccc12 [Compound 1, (S)-1-(5′-(5-(3,5-dichloro-4-fluorophenyl)-5-(trifluoromethyl)-4,5-dihydroisoxazol-3-yl)-3′H-spiro[azetidine-3,1′-isobenzofuran]-1-yl)-2-(methylsulfonyl)ethanone]
# Dead Ticks (mean) ([1]; 2-4 hours post infestation): 0 | # Dead Ticks (mean) ([1]; 24 hours post infestation): 9.0 | # Dead Ticks (mean) ([1]; 48 hours post infestation): 9.3 | # Dead Ticks (mean) ([1]; 72 hours post infestation): 9.7 | % Reduction ([1]; 2-4 hours post infestation): 0.0% | % Reduction ([1]; 24 hours post infestation): 100.0% | % Reduction ([1]; 48 hours post infestation): 100.0% | % Reduction ([1]; 72 hours post infestation): 100.0% | duration of contact activity against ticks following the topical dose (Ixodes scapularis ticks; hair samples, I. scapularis and R. sanguineus): at least 26 days | # Dead Ticks (mean) (Ixodes scapularis ticks; 2-4 hours post infestation): 0 | # Dead Ticks (mean) (Ixodes scapularis ticks; 24 hours post infestation): 3.7 | # Dead Ticks (mean) (Ixodes scapularis ticks; 48 hours post infestation): 7.3 | # Dead Ticks (mean) (Ixodes scapularis ticks; 72 hours post infestation): 9.3 | % Reduction (Ixodes scapularis ticks; 2-4 hours post infestation): 0.0% | % Reduction (Ixodes scapularis ticks; 24 hours post infestation): 72.7% | % Reduction (Ixodes scapularis ticks; 48 hours post infestation): 86.4% | % Reduction (Ixodes scapularis ticks; 72 hours post infestation): 85.7% | solubility for Compound 1 [2]: excellent | control of ticks (reduction in geometric mean counts vs placebo) [3, 6]: > 95% | Geometric mean live ticks (LT) ([3]; 57 days): 0.0 | Geometric mean live ticks (LT) ([3]; 90 days): 0.0 | Geometric mean live ticks (LT) ([3]; 118 days): 0.1 | Geometric mean live ticks (LT) ([3]; 146 days): 0.3 | Geometric mean live ticks (LT) ([3]; 174 days): 4.5 | % Reduction live ticks ([3]; 25 mg/kg topical, 57 days): 100% | % Reduction live ticks ([3]; 25 mg/kg topical, 90 days): 100% | % Reduction live ticks ([3]; 25 mg/kg topical, 118 days): 99.1% | % Reduction live ticks ([3]; 25 mg/kg topical, 146 days): 97.3% | % Reduction live ticks ([3]; 25 mg/kg topical, 174 days): 64.3% | control of fleas (reduction in geometric mean counts vs placebo) [4, 6]: > 95% | Geometric mean live fleas (LF) ([4]; 57 days): 0.2 | Geometric mean live fleas (LF) ([4]; 90 days): 0.0 | Geometric mean live fleas (LF) ([4]; 118 days): 0.9 | Geometric mean live fleas (LF) ([4]; 146 days): 0.8 | Geometric mean live fleas (LF) ([4]; 174 days): 13 | % Reduction live fleas ([4]; 25 mg/kg topical, 57 days): 98.6% | % Reduction live fleas ([4]; 25 mg/kg topical, 90 days): 100% | % Reduction live fleas ([4]; 25 mg/kg topical, 118 days): 98.6% | % Reduction live fleas ([4]; 25 mg/kg topical, 146 days): 98.3% | % Reduction live fleas ([4]; 25 mg/kg topical, 174 days): 74.3% | flux rates and permeation constants with increasing dimethyl isosorbide (FIG. 3) ([5]; 250 mg/mL, butyl digol:dimethyl isosorbide 90:10, 80:20, 60:40 v/v %): small reduction | flux rates and permeation constants versus oleic acid level (FIG. 4) ([5]; 250 mg/mL, butyl digol:oleic acid 95:5, 90:10, 80:20 v/v %): increase with increasing oleic acid levels | flux versus drug load (FIG. 2) ([5]; 50, 150 and 250 mg/mL in butyl digol:dimethyl isosorbide 90:10 v/v %): increased drug load correlates to increased flux
